# From PubChem BioAssay (NCI)
#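 Each compound was tested at five concentrations against cells in 96-well plates for 48 hours. GI50: concentration for 50% inhibition of growth. At the TGI there is no net growth.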
# Key:
# Assay in all cases: NCI tumour cell line growth inhibition, 48 h
# [1] = test system: CCRF-CEM leukemia
# [2] = test system: M14 melanoma
# [3] = test system: MDA-MB-435
# [4] = test system: SR leukemia
# [5] = test system: PC-3 prostate
# [6] = test system: HS 578T breast
# [7] = test system: BT-549 breast
# [8] = test system: MDA-MB-231 breast
# [9] = test system: UACC-257 melanoma
# [10] = test system: NCI-H522 lung
Compound,TGI [1] [µM],TGI [2] [µM],TGI [3] [µM],TGI [4] [µM],TGI [5] [µM],TGI [6] [µM],TGI [7] [µM],TGI [8] [µM],TGI [9] [µM],GI50 [1] [µM],GI50 [2] [µM],GI50 [3] [µM],GI50 [5] [µM],GI50 [6] [µM],GI50 [7] [µM],GI50 [8] [µM],GI50 [10] [µM],TGI [10] [µM],GI50 [9] [µM],GI50 [4] [µM]
Cc1cc(C)c(S(=O)(=O)N(CCCN)OCCCN)c(C)c1,> 100,> 100,> 100,> 100,> 100,> 100,> 100,> 100,> 100,,,,,,,,,,,
CCN(CC)C(=S)SSCCO,45.2,27.5,31.7,,28.1,34.7,31.9,30.3,48.6,14.5,14.2,15.6,14.9,16,16,15.3,0.211,20.3,19.1,
CC1CCN(c2cc(-c3cc4ccccc4o3)oc(=O)c2C#N)CC1,> 100,> 100,,> 100,,,,,> 100,,,,,,,,,,,
Clc1ccc(-c2nnc(-c3nsc4ccccc34)o2)cc1,,> 100,,,,,,,> 100,,,,,,,,,,,
O=c1[nH]c(=S)[nH]c2c(C3OC(CO)C(O)C3O)nsc12 (centres undefined),> 100,> 100,> 100,,> 100,> 100,> 100,,> 100,,,,,,,,,,,
Clc1cccc(C2SCc3nc4ccccc4n32)c1 (centres undefined),> 100,50.5,,56.3,,,,,,,,,,,,,,29.5,,
Fc1ccc(C(OCCN2CC3CC2CN3)c2ccc(F)cc2)cc1 (centres undefined),> 100,,53.8,73,> 100,> 100,> 100,> 100,36.6,,,,,,,,,> 100,,
CC(C)(CC1(C)NC(=O)NC1=O)OCc1ccccc1 (centres undefined),,> 100,> 100,> 100,> 100,> 100,> 100,> 100,> 100,,,,,,,,,> 100,,
CCOC(=O)[C@H]1Nc2c(cccc2[N+](=O)[O-])C2c3ccccc3CC21 (some centres undefined),,> 100,,> 100,,,,,98.4,,,,,,,,,> 100,,
CCOc1cc(/C=C/C(=O)CC(=O)/C=C/c2ccc(OC(=O)CNCCN(CC)CC)c(OCC)c2)ccc1OC(=O)CNCCN(CC)CC,1.66,4.23,6.31,1.63,10.7,6.43,3.52,6.08,3.48,0.394,1.74,1.56,1.62,2.19,1.45,2.08,1.8,5.13,1.32,0.313
CC1=NN(C(=O)c2ccc(C)cc2)C(=O)C1N=Nc1ccccc1C(=O)O (centres undefined),> 100,,,,,,,,> 100,,,,,,,,,> 100,,
N/C(=N\N=C/c1cc([N+](=O)[O-])cc([N+](=O)[O-])c1O)NO,> 100,,,,,,,,> 100,,,,,,,,,> 100,,
Cc1ccc2oc3c(ccc(=O)n3C)c(=O)c2c1,> 100,> 100,> 100,> 100,> 100,> 100,,> 100,,,,,,,,,,> 100,,
c1csc(C(NC2=NCCO2)C2CC2)c1 (centres undefined),,,,> 100,> 100,> 100,,> 100,,,,,,,,,,> 100,,
CO/C(=N\N=C(/c1ccccc1)C(F)(F)F)c1ccncc1,77,> 100,> 100,> 100,> 100,> 100,> 100,> 100,,,,,,,,,,> 100,,
